The source of these data is patent publication US20260327211A1, “MODULATORS OF A POTASSIUM CHANNEL AND OF TRPV1 CHANNEL AND USES THEREOF” (Bsense Bio Therapeutics Ltd., priority 2023, published 2026).

Common to all, as to type: cell-based
Series [1] deals with T1, hTRPV1 (Homo sapiens, UniProt Q8NER1).
T1 construct: CDS of NM_080704.4, inserted into the multiple cloning site of pcDNA3.1(+); host or cells: CHO/hKv7.2/3
In words: hTRPV1 dual activity electrophysiology, CHO cells co-expressing hKv7.2/3 and hTRPV1. The note with it: with hKv7.2/3 activation. How it is done:
Cell culture and DNA transfection: CHO/hKv7.2/3 cells were transfected with hTRPV1 DNA constructs (CDS of NM_080704.4, inserted into the multiple cloning site of pcDNA3.1(+) between the Hind III and BamH I restriction site, Genscript). For CHO transfection, 1×10^6 cells were suspended in a reaction mix (Amaxa™ 4D-Nucleofector™-LONZA) containing 5 μg of hTRPV1 DNA and 0.5 μg of GFP DNA (for cells selection) in a cuvette.
The cells were transformed (Amaxa, DT-133 program for CHO transfection with p-3 Kit) and recovered for 10 minutes at RT in the hood. Then cells were re-suspended in a 10 mL antibiotic (Ab)-free medium suspension and were plated on Gelatin or PLL-coated cover glass in different cell densities. On the next morning, the medium was changed to full medium containing the CHO/hKv7.2/3 cell line selection antibiotics.
Extracellular (Bath) solution: The solution was composed of (in mM): NaCl, 140; KCl, 4; CaCl2, 1.8; MgCl2, 1.2; Glucose, 11; HEPES, 5.5. pH was adjusted to 7.3 with NaOH. Osmolarity was adjusted to 310 mOsm with Sucrose.
Intracellular (Pipette) solution: Pipettes were pulled from borosilicate glass (Warner Instrument Corp, USA) with a resistance of 3-7 MΩ and were filled with internal solution composed of (in mM): KCl, 130; MgCl2, 1; K ATP, 5; EGTA, 5; HEPES, 10. pH was adjusted to 7.3 with KOH. Osmolarity was adjusted to 290 mOsm with Sucrose.
A programmable valve-linked pressurized perfusion system was used for local application of compounds nearby the cell recorded in a consistent flow rate of 2-3 mL/minute. Series resistance was corrected and data were sampled at 5 kHz and low pass filtered at 2.4 kHz using MultiClamp 700B amplifier with pCLAMP11 software (Molecular Devices, USA).
At least 48 hours following cell transfection and plating, cells were recorded to assess the TRPV1 dual activity. Membrane potential was held at −90 mV. To measure the inhibitory effects of the tested compounds on hTRPV1 dual activity the following protocol was performed:
Cells were perfused with vehicle-only containing bath solution. After 30 seconds, a single −40 mV 1.5 second step was applied for Kv7.2/3 activation and 30 seconds later capsaicin (1 μM) was applied for 6 seconds to activate the TRPV1.
Cells perfusion was changed to a compound-containing bath solution, and after 2 minutes and 30 seconds of compound application, a single −40 mV 1.5 second step was applied for Kv7.2/3 activation and 30 seconds later capsaicin (1 μM) was applied for 6 seconds to activate the TRPV1.
Cells perfusion was thereafter changed back to vehicle only-containing bath solution. After 30 seconds, a single −40 mV 1.5 step was applied for Kv7.2/3 activation and 30 seconds later capsaicin (1 μM) was applied for 6 seconds to activate the TRPV1 followed by a capsaicin wash out.
The drug current response, when capsaicin was injected following 3 minutes of pre-incubation with the test compound, was divided by the averaged control currents, induced without compound, before compound incubation and following its washout, to evaluate the drug/control response.

The subject of series [2] is rat DRG neurons. Nature of the series: Rat DRG neurons, capsaicin-evoked action potential firing. The following applies: for Inhibition of capsaicin induced AP response: 100 nM. From the text:
(§1) rDRGs isolation and primary cell culture: Briefly, rat DRGs from all spinal levels were carefully removed and collected in HBSS on ices, connective tissue of the epineurium surrounding the ganglion was removed and cells were dissociated using Collagenase-II and trypsin dissociation solutions. DRGs were dissociated further, passed through glass Pasteur pipettes to obtain single cells. Then dissociation solution was changed to 5% FBS containing DRG neuronal culture medium and plated onto ECL coated 12 mm cover glass.
(§2) Additional rDRGs experiments were performed using Lonza primary neonatal rat (Sprague Dawley neonatal; P2,3) DRG neurons (R-DRG-505, Lonza) plated and cultured according to the manufacturer.
(§3) Electrophysiology: Cells were used for electrophysiological recording at least 48 hours following rDRG isolation or at least 5 days following cryopreserved rDRG thawing. Round small neurons (20-40 μm in diameter) were selected for electrophysiology recordings, to select for small nociceptive neurons that propagate pain sensation in vivo and that are expressing both Kv7.2/3 and TRPV1 targets. Membrane excitability was monitored using current clamp configuration of the whole-cell patch-clamp technique. Positive current steps of different amplitude were injected (400 ms) to induce spikes trains before and following compound application.
To assess the potency of compounds using DRG neurons, the inhibitory potency for CAP-evoked action potential (AP) trains was measured. For this purpose, DRG membrane potential was continuously measured, and the following protocol was performed:
Cells were perfused with vehicle containing bath solution. After 30 seconds, CAP (1 μM) was applied for 6 seconds to activate TRPV1 and stimulate AP trains.
After 30 seconds of perfusion with bath solution containing only vehicle, perfusion was changed to a bath solution containing compound, and after 3 minutes of compound application, CAP (1 μM) was applied again for 6 seconds to activate TRPV1 and stimulate AP trains.
Cells perfusion was changed back to bath solution containing only vehicle and after 3 minutes of compound washout, CAP (1 μM) was applied again for 6 seconds to activate TRPV1 and stimulate AP trains.
To evaluate the drug/control response, the number of AP spikes induced by CAP following incubation with test compound was divided by the average number of control AP spikes induced without compound, before compound incubation, and following its washout.

Series [3] concerns rat DRG neurons. Nature of the series: Rat DRG neurons, current-evoked action potential firing. The note with it: for Inhibition of current induced AP response: 100 nM.
Text: as §1, §2, §3

Series [4] addresses T1, hTRPV1. In words: TRPV1 HCS, Fluo-8 calcium flux, capsaicin activation, CHO cells expressing hTRPV1. How it is done: Cell culture: Chinese hamster ovary (CHO) cell-line cells with constitutive expression of human hTRPV1 channels (B'SYS GmbH, Switzerland) were cultured in F-12 nutrient mixture (Biological Industries) supplemented with 10% fetal bovine serum (Biological Industries) and 1% penicillin-streptomycin (Biological Industries) in a humidified 5% CO2 incubator at 37° C. To maintain the stable expression of hTRPV1, antibiotic selection (G418 500 μg/ml) was applied.
High content screen (HCS) using Fluo-8 No Wash Calcium flux Assay Kit: Fluo-8 No Wash Calcium Assay Kit (Abcam, ab112129) was used with CHO stably or transiently expressing TRPV1 to screen compounds against the hTRPV1 ion channel target. The cells were pre-loaded with Fluo-8AM which is membrane permeable. The AM groups of the Fluo-8AM were then being cleaved by intracellular esterase, trapping the Fluo8 in the cell. […] The relative fluorescence signal was calculated following background subtraction, comparing the fluorescence at each time point to its maximal level measured following Ionomycin application in the end.
According to optimization process to achieve uniform and consistent screening condition of molecules the following protocol was established: Cells were seeded in 384-well, black-walled, clear-bottomed, at a density of 5,000 cells per well 24 h before the assay conductance and incubated overnight in their normal growth medium. On the experiment day the medium was replaced in each well with HBSS, HEPES, and compound/vehicle (0.2% DMSO). Dye solution (prepared according to the manufacturer) was added to the wells and plates are incubated for 1.5 h light-protected in room temperature. The Tecan Spark plate reader injectors were then primed with capsaicin and Ionomycin for channel activation and data normalization, respectively. […] To calculate IC50 values, the data was fitted to sigmoidal regression line using Prism GraphPad. The fitting was constrained to a minimum of 0 and a maximal response of about 1 unless a different maximal response could be identified.
Background: A change in cytosolic calcium serves as a functional read-out for many receptors and channels.

Series [5] addresses T2, hKv7.2/3 (Homo sapiens, UniProt O43525+O43526).
T2 construct: host or cells: CHO
In words: Kv7.2/7.3 HCS, FLIPR potassium (thallium) assay, CHO/hKv7.2/3. On the procedure:
Cell culture: Chinese hamster ovary (CHO) cell-line cells with a constitutive expression of human Kv7.2/3 channels (B'SYS GmbH, Switzerland) were cultured in F-12 nutrient mixture (Biological Industries) supplemented with 10% fetal bovine serum (Biological Industries) and 1% penicillin-streptomycin (Biological Industries) in a humidified 5% CO2 incubator at 37° C. To maintain the stability of human Kv7.2/7.3 expression antibiotic selection was added (Puromycin 5 μg/ml).
High content screen (HCS) using FLIPR Potassium Assay Kit: A FLIPR Potassium Assay Kit (R8222 FLIPR Potassium Assay Explorer Kits, Molecular Devices) was used with the CHO/hKv7.2/3 cell line to screen molecules against the hKv7.2/7.3 ion channel target. The assay exploits the permeability of thallium ions (Tl+) through potassium (K+) channels. In this assay, Tl+ indicator dye is used to produce a bright fluorescent signal upon the binding to Tl+ conducted through the potassium channels. The intensity of the Tl+ signal is proportional to the number of potassium channels in the open state. Therefore, it provides a functional indication of the potassium channel activity. To activate the voltage-gate potassium channels, the cells were stimulated with a mixture of K+ and Tl+ to depolarize the cell membrane. The fluorescence increase in the assay represents the influx of Tl+ into the cell specifically through the potassium channel, providing a functional read-out of hKv7.2/3 activity using a fluorescent plate reader coupled with injectors used to activate the channels.
According to optimization process to achieve uniform and consistent screening conditions the following protocol was established: Cells were seeded in 384-well, black-walled, clear-bottomed Greiner #781091, at a density of 5000 cells per well 24 hours before the assay conductance and incubated overnight in their normal growth medium. On the experiment day the medium was replaced with HBSS, HEPES, and the test compound/vehicle (0.2% DMSO). Dye solution (prepared according to the manufacturer) was added to the plates, which were incubated for 1.5 h light-protected in room temperature. Tecan Spark reader plate injectors were primed with Tl+(1 mM Tl2SO4) or Tl++K+(1 mM Tl2SO4; 5 mM K2SO4) for channel activation and data correction. […] To calculate EC50 values, the data was fitted to sigmoidal regression using Prism GraphPad. The fitting was constrained to a minimum of 1 and a maximal response of about 3.6 unless a different maximal response could be clearly identified.

Series [6] concerns the target hERG (Homo sapiens, UniProt Q12809). Nature of the series: hERG HCS, FLIPR potassium assay, CHO/hERG. More on the design: host or cells: CHO. The following applies: at highest concentration shown, Table 1. How it is done: Cell culture: Chinese hamster ovary (CHO) cell-line cells with a constitutive expression of human hERG channels (B'SYS GmbH, Switzerland) were cultured in F-12 nutrient mixture (Biological Industries) supplemented with 10% fetal bovine serum (Biological Industries) and 1% penicillin-streptomycin (Biological Industries) in a humidified 5% CO2 incubator at 37° C. To maintain the hERG expression stability of the CHO cell line, antibiotics selection (G418 […] and Hygromycin 500) was applied.
FLIPR Potassium Assay Kit: The FLIPR Potassium Assay Kit (R8222 FLIPR Potassium Assay Explorer Kits, Molecular Devices) was used with CHO/hERG cell line, for screening compounds against the hERG ion-channel off-target, as detailed hereinabove.
According to optimization process, to achieve a uniform and consistent screening condition of molecules, the following protocol was established: Cells were seeded in 384-well, black-walled, clear-bottomed, at a density of 7,500 cells per well 24 hours before the assay conductance and incubated overnight in their normal growth medium. On the experiment day the medium was replaced with HBSS, HEPES, and the tested compound/vehicle (0.2% DMSO). Dye solution (prepared according to the manufacturer) was added to the wells and plates were incubated for 1.5 hour light-protected in room temperature. The Tecan Spark plate-reader injectors were primed with Tl+(1 mM Tl2SO4) or Tl++K+(1 mM Tl2SO4; 10 mM K2SO4) for channel activation and data correction. […]. To calculate IC50 values, the data was fitted to sigmoidal regression using Prism GraphPad.

Like-named read-outs stand apart in the source and are kept apart here.

T2 sequence (O43525 whole entry): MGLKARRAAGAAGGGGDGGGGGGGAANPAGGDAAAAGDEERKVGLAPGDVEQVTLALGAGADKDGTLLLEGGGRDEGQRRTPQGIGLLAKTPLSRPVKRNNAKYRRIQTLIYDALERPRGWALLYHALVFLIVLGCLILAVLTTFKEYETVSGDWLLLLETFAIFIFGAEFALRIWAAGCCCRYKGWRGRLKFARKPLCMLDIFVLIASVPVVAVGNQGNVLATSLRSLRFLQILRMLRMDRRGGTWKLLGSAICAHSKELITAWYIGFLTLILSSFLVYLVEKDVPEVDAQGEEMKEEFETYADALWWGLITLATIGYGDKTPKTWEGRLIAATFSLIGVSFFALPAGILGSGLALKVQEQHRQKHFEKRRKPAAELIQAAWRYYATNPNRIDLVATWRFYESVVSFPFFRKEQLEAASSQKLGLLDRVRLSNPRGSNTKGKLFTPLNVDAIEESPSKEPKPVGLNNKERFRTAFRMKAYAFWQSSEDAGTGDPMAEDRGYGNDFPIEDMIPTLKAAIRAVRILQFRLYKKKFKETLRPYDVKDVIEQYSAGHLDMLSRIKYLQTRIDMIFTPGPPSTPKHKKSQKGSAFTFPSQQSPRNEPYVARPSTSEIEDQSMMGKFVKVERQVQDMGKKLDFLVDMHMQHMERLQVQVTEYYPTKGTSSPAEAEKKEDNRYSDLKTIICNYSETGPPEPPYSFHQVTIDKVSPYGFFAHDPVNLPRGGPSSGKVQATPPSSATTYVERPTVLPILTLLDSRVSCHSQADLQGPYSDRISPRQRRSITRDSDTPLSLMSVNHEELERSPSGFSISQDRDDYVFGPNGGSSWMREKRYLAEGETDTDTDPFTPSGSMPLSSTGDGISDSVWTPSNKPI
T2 sequence (O43526 whole entry): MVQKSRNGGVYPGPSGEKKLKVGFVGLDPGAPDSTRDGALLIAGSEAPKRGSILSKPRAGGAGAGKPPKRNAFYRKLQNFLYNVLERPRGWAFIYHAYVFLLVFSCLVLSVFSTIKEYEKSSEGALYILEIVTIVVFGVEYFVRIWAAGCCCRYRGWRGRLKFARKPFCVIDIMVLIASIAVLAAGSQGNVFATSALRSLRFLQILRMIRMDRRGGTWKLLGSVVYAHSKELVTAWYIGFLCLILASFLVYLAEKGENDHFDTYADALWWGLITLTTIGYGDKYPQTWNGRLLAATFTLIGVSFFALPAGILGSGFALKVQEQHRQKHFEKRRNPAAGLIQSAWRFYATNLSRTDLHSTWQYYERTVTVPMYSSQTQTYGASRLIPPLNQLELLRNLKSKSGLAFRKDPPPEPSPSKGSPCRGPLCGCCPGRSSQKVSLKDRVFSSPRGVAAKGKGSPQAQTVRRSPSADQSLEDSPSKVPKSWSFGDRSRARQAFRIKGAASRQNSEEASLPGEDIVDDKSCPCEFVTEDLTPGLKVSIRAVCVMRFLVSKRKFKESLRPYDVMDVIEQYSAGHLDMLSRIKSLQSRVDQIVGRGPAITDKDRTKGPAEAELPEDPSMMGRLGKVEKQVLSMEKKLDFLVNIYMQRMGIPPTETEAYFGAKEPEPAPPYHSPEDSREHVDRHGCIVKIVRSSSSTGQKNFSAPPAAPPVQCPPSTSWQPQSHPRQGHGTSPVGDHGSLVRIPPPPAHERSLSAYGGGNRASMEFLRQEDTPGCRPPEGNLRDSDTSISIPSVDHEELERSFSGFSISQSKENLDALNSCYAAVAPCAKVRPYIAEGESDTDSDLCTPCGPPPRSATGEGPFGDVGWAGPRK
T1 sequence (Q8NER1 whole entry): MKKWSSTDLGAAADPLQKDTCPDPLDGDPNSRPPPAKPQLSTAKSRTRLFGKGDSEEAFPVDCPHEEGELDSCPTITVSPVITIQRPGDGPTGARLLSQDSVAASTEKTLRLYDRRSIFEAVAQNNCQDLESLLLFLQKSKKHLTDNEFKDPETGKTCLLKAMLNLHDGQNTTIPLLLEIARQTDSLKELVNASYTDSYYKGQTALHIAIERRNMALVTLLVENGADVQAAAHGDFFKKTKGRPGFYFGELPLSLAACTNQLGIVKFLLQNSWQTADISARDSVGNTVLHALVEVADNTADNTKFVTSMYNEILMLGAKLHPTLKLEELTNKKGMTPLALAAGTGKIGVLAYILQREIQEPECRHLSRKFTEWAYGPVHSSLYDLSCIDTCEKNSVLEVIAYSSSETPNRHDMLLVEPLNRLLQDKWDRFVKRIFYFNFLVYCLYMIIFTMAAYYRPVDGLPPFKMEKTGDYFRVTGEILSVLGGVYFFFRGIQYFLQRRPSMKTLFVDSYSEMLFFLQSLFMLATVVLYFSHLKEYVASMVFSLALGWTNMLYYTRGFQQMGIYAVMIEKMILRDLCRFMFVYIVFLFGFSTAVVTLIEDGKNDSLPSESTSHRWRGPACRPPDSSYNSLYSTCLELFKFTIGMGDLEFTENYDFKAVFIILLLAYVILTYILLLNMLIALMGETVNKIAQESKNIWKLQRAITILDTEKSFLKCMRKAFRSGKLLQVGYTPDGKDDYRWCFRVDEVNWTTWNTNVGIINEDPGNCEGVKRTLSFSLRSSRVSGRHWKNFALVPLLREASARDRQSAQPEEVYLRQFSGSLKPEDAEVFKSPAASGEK
hERG, sequence (Q12809 whole entry): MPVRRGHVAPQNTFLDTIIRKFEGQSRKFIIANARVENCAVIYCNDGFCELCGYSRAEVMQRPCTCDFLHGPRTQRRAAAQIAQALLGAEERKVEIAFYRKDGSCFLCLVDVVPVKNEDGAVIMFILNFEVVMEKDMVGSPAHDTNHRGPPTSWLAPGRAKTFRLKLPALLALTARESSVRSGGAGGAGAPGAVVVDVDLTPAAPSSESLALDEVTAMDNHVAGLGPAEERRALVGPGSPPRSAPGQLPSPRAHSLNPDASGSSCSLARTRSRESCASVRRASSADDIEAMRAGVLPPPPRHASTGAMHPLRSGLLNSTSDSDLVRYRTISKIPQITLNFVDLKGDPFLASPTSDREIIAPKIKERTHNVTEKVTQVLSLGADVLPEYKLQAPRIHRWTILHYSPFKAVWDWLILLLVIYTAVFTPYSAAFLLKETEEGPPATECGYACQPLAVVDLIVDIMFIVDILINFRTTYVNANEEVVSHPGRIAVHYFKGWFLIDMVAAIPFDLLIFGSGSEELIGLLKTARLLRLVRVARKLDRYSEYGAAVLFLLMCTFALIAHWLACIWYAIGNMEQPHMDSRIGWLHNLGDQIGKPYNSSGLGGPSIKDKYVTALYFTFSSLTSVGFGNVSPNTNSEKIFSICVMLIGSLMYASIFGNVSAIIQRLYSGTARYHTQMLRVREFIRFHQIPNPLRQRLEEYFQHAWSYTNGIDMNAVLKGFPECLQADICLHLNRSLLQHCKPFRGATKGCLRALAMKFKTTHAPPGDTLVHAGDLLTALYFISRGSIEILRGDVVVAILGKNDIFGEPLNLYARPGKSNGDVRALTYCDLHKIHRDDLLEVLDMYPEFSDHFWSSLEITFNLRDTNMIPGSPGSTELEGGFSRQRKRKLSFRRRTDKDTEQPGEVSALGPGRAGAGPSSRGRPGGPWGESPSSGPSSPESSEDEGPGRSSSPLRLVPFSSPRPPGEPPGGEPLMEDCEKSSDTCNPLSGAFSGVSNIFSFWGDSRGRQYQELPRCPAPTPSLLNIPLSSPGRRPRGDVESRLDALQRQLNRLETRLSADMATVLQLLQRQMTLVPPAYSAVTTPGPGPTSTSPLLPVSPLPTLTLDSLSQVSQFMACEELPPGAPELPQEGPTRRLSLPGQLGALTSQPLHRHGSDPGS

Consider `CC(C)(C)c1ccc(/C=C/C(=O)Nc2ccc3c(c2)OCCO3)cc1` [AMG9810, reference compound], for which the “hTRPV1 inhibition potency, Kv7.2/3 co-expressed and activated” value in series [1] was “failure to gain TRPV1-inhibition potency”. Besides, in series [2] (50 nM), the “Inhibition of capsaicin evoked firing” value is “about 50%”. In addition, the Current evoked response result in series [3] (50 nM) is “remains unchanged”.
For the compound `CC(C)c1cc(Cl)cc(Cl)c1C(O)c1ccc(F)c(CC(=O)NCC2(O)CCC2)c1` (single isomer, unassigned) [Compound 533p2], the “Inhibition of capsaicin induced AP response” value is “facilitated” in series [2] (0.1 µM) and “potentiates capsaicin induced AP” in series [2] (listed as 533P2, 0.1 µM). Also, the “Inhibition of current induced AP response” value in series [3] (0.1 µM) was “inhibits the current-evoked rat DRGs spiking”; in series [3] (listed as 533P2, 0.1 µM), “inhibits current induced AP”. In addition, the “TRPV1 modulation (words)” value in series [4] is “activates hTRPV1”; in series [4] (listed as 533P2) it was “activating TRPV1”. The entries for the “Kv7.2/3 activation (words)” value in series [5] and in series [5] (listed as 533P2) were “higher” and “more potent activation of Kv7.2/3”, respectively.
Take `CC(C)c1cc(Cl)cc(Cl)c1C(O)c1ccc(F)c(CC(=O)NCC2(O)CCC2)c1` (racemic) [Compound 533 racemic]: the “Inhibition of capsaicin induced AP response” value in series [2] is listed as “highly potentiating capsaicin induced AP inhibition”. In addition, in series [3], the “Inhibition of current induced AP response” value is reported as “reduced current induced AP inhibition”. In series [5] (Table 1, read-out: Kv7.2/7.3 IC50), the EC50 amounted to 1500 nM. In addition, the “hERG IC50 (inhibition in parentheses)” value in series [6] amounted to 0%.
